Test results published in article PMC10447463, “Data-mining unveils structure–property–activity correlation of viral infectivity enhancing self-assembling peptides” (Nature Communications, 2023).
Where two headings read alike, the source gives them in different places.

What was measured:
[1] = Turbidity, derived count rate of scattered light; type: physicochemical; conditions: for Count Rate: derived count rate of scattered light (turbidity); for Log10 Count Rate: turbidity, derived count rate of scattered light, data of Figure 2D
[2] = system: HIV-1 infection of TZM-bl cells; assay: HIV-1 infectivity enhancement assay, β-galactosidase luminescence; type: cell-based; conditions: for Rel-EFC / Log10 Infection Rel EFC: 1.3 µM peptide; for Rel-EFC: infection relative to EF-C (QCKIKQIINMWQ = 1); for Log10 Infection Rel EFC: log10 of infection relative to EF-C; for Log Infectivity: Log10 infection relative to EF-C, TZM-bl cells, asymmetric std dev errors; for Log10 Infection Rel EF-C: HIV-1 infection of TZM-bl cells; for Log10 of Rel to EFC (Feb2021): Log10 of infection relative to EF-C, all peptides of FigS16; for Abs. Inf.: absolute infection signal, HIV-1 on TZM-bl cells, β-galactosidase luminescence; for Log10 Inf. rel. to EF-C: log10 of HIV-1 infection of TZM-bl cells relative to EF-C (EF-C = 0)
[3] = type: physicochemical; conditions: for ThT Cat. / ThT-Fluorescence (categorical): ThT-active if fluorescence at least twice the control
How it was run: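 Fibrils (1 mg/mL solution) were mixed with 50 µM ThT in PBS for 15 min at RT, and fluorescence was read at λex 440/λem 488 nm against a PBS blank, as a triplicate mean ± SD. Zeta potential came from electrophoretic mobility (Smoluchowski) after 1 d aggregation at 1 mg/mL in PBS pH 7.4, diluted into 1 mM KCl.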

[4] = Fig. S7 panel A (plotted against β-sheet content)
[5] = Fig. S7 panel B (plotted against CR), rounded to two decimals
[6] = Log10 of infection rate relative to EF-C, Figure 3A source data
[7] = infection rate relative to EF-C, log10, data of Figure 2D
[8] = infection rate relative to EF-C, log10, source data of Figure 2C
[9] = ThT fluorescence category, 1 if Rel. ThT >2

Substance	Count Rate [1]	Log10 Count Rate [1]	Rel-EFC [2]	Log10 Infection Rel EFC [2]	Log Infectivity [2, 4]	Log Infectivity [2, 5]	Log10 Infection Rel EF-C [2, 6]	Log10 Infection Rel EF-C [2, 7]	Log10 Infection Rel EF-C [2, 8]	Log10 of Rel to EFC (Feb2021) [2]	Abs. Inf. [2]	Log10 Inf. rel. to EF-C [2]	Tht category (> 2 to blank = +) ([3]; Fig S10 panel D)	ThT Cat. ([3]; Fig S10 panel E)	ThT Cat, ([3]; ThT category, 1 if Rel. ThT >2)	ThT Cat. ([3]; ThT category, 1 if Rel. ThT >2)	ThT Cat. / ThT-Fluorescence (categorical) [3]	ThT Cat. [3, 9]	Tht category (> 2 to blank = +) ([3]; FigS12 panel A)	ThT Cat, ([3]; FigS12 panel B)
CKIKQIINM	9058	3.957	0,5	-0,3	-0.3035	-0.3	-0.3	-0.3035	-0.3035	-0.3	11280	-0.3035	1 (ThT. Cat is 1, if Rel. ThT >2)	1 (ThT. Cat is 1, if Rel. ThT >2)	1 (ThT. Cat is 1, if Rel. ThT >2)	1 (ThT. Cat is 1, if Rel. ThT >2)	1 (ThT. Cat is 1, if Rel. ThT >2)	–	–	–
CKWKWQW	7511	3.876	0,25	-0,6	-0.5951	–	-0.6	-0.5951	-0.5951	-0.6	–	–	0 (ThT-inactive (N-Fold <2))	–	0 (ThT-inactive (N-Fold <2))	–	0 (ThT-inactive (N-Fold <2))	0 (ThT-inactive (N-Fold <2))	–	–
CKYKYQY	1061	3.026	0,04	-1,39	-1.3903	–	-1.39	-1.3903	-1.3903	–	–	–	1 (ThT. Cat is 1, if Rel. ThT >2)	–	1 (ThT. Cat is 1, if Rel. ThT >2)	–	1 (ThT. Cat is 1, if Rel. ThT >2)	1 (ThT. Cat is 1, if Rel. ThT >2)	1 (ThT. Cat is 1, if Rel. ThT >2)	1 (ThT. Cat is 1, if Rel. ThT >2)
CRFRFQF	390.5	2.592	0,34	-0,46	-0.4635	-0.46	-0.46	-0.4635	-0.4635	-0.46	7508	-0.4635	1 (ThT. Cat is 1, if Rel. ThT >2)	1 (ThT. Cat is 1, if Rel. ThT >2)	1 (ThT. Cat is 1, if Rel. ThT >2)	1 (ThT. Cat is 1, if Rel. ThT >2)	1 (ThT. Cat is 1, if Rel. ThT >2)	–	–	–
CRFRVPF	73.97	1.869	0,02	-1,7	-1.701	-1.7	-1.7	-1.701	-1.701	–	376.7	-1.701	0 (ThT-inactive (N-Fold <2))	0 (ThT-inactive (N-Fold <2))	0 (ThT-inactive (N-Fold <2))	0 (ThT-inactive (N-Fold <2))	0 (ThT-inactive (N-Fold <2))	–	0 (ThT-inactive (N-Fold <2))	0 (ThT-inactive (N-Fold <2))
EFEFQF	405.4	2.608	0	-2,49	-2.485	–	-2.49	-2.485	-2.485	–	–	–	1 (ThT. Cat is 1, if Rel. ThT >2)	–	1 (ThT. Cat is 1, if Rel. ThT >2)	–	1 (ThT. Cat is 1, if Rel. ThT >2)	1 (ThT. Cat is 1, if Rel. ThT >2)	1 (ThT. Cat is 1, if Rel. ThT >2)	1 (ThT. Cat is 1, if Rel. ThT >2)
EIEIEIEI	538.4	2.731	0,02	-1,75	-1.748	–	-1.75	-1.748	-1.748	–	–	-1.748	0 (ThT-inactive (N-Fold <2))	–	0 (ThT-inactive (N-Fold <2))	–	0 (ThT-inactive (N-Fold <2))	0 (ThT-inactive (N-Fold <2))	0 (ThT-inactive (N-Fold <2))	0 (ThT-inactive (N-Fold <2))
FDPFDPFDP	258	2.412	0,02	-1,63	-1.6317	–	-1.63	-1.6317	-1.6317	–	346.7	-1.6317	0 (ThT-inactive (N-Fold <2))	–	0 (ThT-inactive (N-Fold <2))	0 (ThT-inactive (N-Fold <2))	0 (ThT-inactive (N-Fold <2))	–	0 (ThT-inactive (N-Fold <2))	0 (ThT-inactive (N-Fold <2))
FKFDKFKFDK	45.13	1.6545	0,05	-1,33	-1.334	–	-1.33	-1.334	-1.334	–	513.3	-1.334	0 (ThT-inactive (N-Fold <2))	–	0 (ThT-inactive (N-Fold <2))	0 (ThT-inactive (N-Fold <2))	0 (ThT-inactive (N-Fold <2))	–	0 (ThT-inactive (N-Fold <2))	0 (ThT-inactive (N-Fold <2))
HGDKCHGDKC	12.43	1.095	0,01	-1,99	-1.991	-1.99	-1.99	-1.991	-1.991	–	263.3	-1.991	0 (ThT-inactive (N-Fold <2))	0 (ThT-inactive (N-Fold <2))	0 (ThT-inactive (N-Fold <2))	0 (ThT-inactive (N-Fold <2))	0 (ThT-inactive (N-Fold <2))	–	0 (ThT-inactive (N-Fold <2))	0 (ThT-inactive (N-Fold <2))
HGEHGE	240.6	2.381	0,01	-2,19	-2.193	–	-2.19	-2.193	-2.193	–	140	-2.193	0 (ThT-inactive (N-Fold <2))	–	0 (ThT-inactive (N-Fold <2))	0 (ThT-inactive (N-Fold <2))	0 (ThT-inactive (N-Fold <2))	–	0 (ThT-inactive (N-Fold <2))	0 (ThT-inactive (N-Fold <2))
HGEHGEHGE	340.4	2.532	0,02	-1,72	-1.72	-1.72	-1.72	-1.72	-1.72	–	360	-1.72	0 (ThT-inactive (N-Fold <2))	0 (ThT-inactive (N-Fold <2))	0 (ThT-inactive (N-Fold <2))	0 (ThT-inactive (N-Fold <2))	0 (ThT-inactive (N-Fold <2))	–	0 (ThT-inactive (N-Fold <2))	0 (ThT-inactive (N-Fold <2))
HHHHEIEIEIEI	103.3	2.014	0,03	-1,53	-1.534	–	-1.53	-1.534	-1.534	–	–	–	1 (ThT. Cat is 1, if Rel. ThT >2)	–	1 (ThT. Cat is 1, if Rel. ThT >2)	–	1 (ThT. Cat is 1, if Rel. ThT >2)	1 (ThT. Cat is 1, if Rel. ThT >2)	1 (ThT. Cat is 1, if Rel. ThT >2)	1 (ThT. Cat is 1, if Rel. ThT >2)
